One compound from patent publication US20120269799A1, “DIAGNOSTIC AND TREATMENT METHODS USING A LIGAND LIBRARY” (priority 2011, published 2012) can be followed below.

In this assay the test system is anti-DNP antibody. The assay can be described thus: Competition between free ethanolamine-DNP and DNP on a plate. In kind it is binding. Conditions: 1,000 ug/mL sera concentration. The procedure:
The Mean fluorescence intensity (MFI) separation was greatest at the higher dilution of 1,000 ug/mL sera.

Regarding `O=[N+]([O-])c1ccc(NCCO)c([N+](=O)[O-])c1` [ethanolamine-DNP], the “competition with the binding of DNP (on a plate) to anti-DNP antibody” value is reported as “direct competition”.
